Assay results as given in patent US20250367330A1, “OPTICAL CLEARING ENABLED BY THE KRAMERS-KRONIG RELATION” (The Board of Trustees of the Leland Stanford Junior …, priority 2021, published 2025).

Tests used:
[1] = Ellipsometry measurement of solution refractive index and molar n′ change β; format: physicochemical
Protocol: A Horiba UVISEL ellipsometer was used to measure the real and imaginary parts of the refractive index of solutions at different concentrations of specific dye molecules. For solution measurement, 5 mL of solution was added to a shallow glass petri-dish (35×10 mm, Corning Falcon). The solution covers the entire bottom of the petri-dish creating a flat, reflective air-liquid interface. The reflected light was measured at an angle of 69.85° and the refractive index of the solution was calculated using a single interface semi-infinite reflection model. For all the measurements, 0.2 s integration time was used for each wavelength.
Measurements of the Molar n′ Change, β
The molar n′ change, β, is defined and measured according to the following quantitative relationship between the n′ and c (i.e., the concentration) of an aqueous solution containing dissolved clearing agents:
[formula] • where nw′ is the real RI of pure water, c is the molar concentration (M) of the clearing agent, and β is its molar n′ change. Note that n′, nw′, and β all have wavelength dependence. According to eq. (6), by measuring the n′(λ) of the solutions with ellipsometry, one can obtain β(λ) by fitting n′(λ) with c to a linear relationship.

[2] = when used as a clearing agent, reported; cited from earlier work
chicken breast tissue [3] = assay: Temporal evolution of transmittance during immersion, diffusion in chicken breast tissue
From the text: (FIG. 19A) Temporal evolution of transmittance T at different wavelengths of a chicken breast tissue immersed in a 0.62 M solution of Dye-4. (FIG. 19B) Temporal evolution of normalized T at different wavelengths. T is normalized between 0 and 1 against minimum and maximum T for each wavelength. (FIG. 19C) Temporal evolution of normalized T averaged over measurements at all wavelengths in FIG. 19B, enabling the extraction of the diffusion constant by fitting the normalized T to
This tissue sample has a thickness of d=1.82 mm; therefore, the diffusion coefficient D of Dye-4 therein can be calculated as
For this reason, estimates of the diffusion rate of Dye-4 molecules can be made in chicken breast by tracking the temporal evolution of T during dye immersion (FIGS. 6F and 19A-19C). […] Using a dilute solution to achieve the same Δn′ and clearing effect benefits from a low viscosity of the clearing agent, thus promoting its diffusion kinetics.
For transmission measurements of chicken breast tissue, the tissue sample was first mounted on a microscope slide (precleaned, 12-550-15, Fisher Scientific), which was placed in the light path of the UV-Vis spectrometer to ensure that the entire incident beam is blocked by the tissue. For time-dependent transmission measurement, the tissue was cut to fit into a 1 cm optical path plastic cuvette (acrylic, 14-955-126, Fisher Scientific) while having sufficient area to completely block the incident light. 3 mL of Dye-4 solution was then slowly added to fully immerse the chicken breast tissue, before the cuvette was sealed by parafilm (Bemis Company, Inc., Neenah, Wisconsin, USA) to minimize water evaporation. The temperature of the cuvette was controlled between 25 and 30° C. during measurements.
The thickness of the tissue was measured by sandwiching the tissue between two coverslips (22×22×0.15 mm, Thermal Scientific) using a digital caliper (Mitutoyo). The transmission spectra of the tissue were measured by attaching the chicken breast tissue on a microscope slide (precleaned, Fisher Scientific).

[4] = Screening of absorbing molecules for K-Klear by α, β and β/α spectra; format: physicochemical
From the text: (FIG. 3A) The relation between average molar absorption a and average molar n′ change β in the wavelength range between 500 to 700 nm for different molecules. (FIG. 3B) The ratio between the molar n′ change and molar absorption (β/α) for different absorbing molecules. The “white window” indicates a potential clearing spectrum with sufficient Δn′ and minimal absorption. (FIGS. 3C-3D) Imaginary part n″ (FIG. 3C) and real part n′ (FIG. 3D) of the RI of Dye-4 solutions at different concentrations measured from ellipsometry.
In practice, the agent should display a large absorption coefficient in order to realize the large, required changes in n′. […] At the same time, the agent should have minimal absorption at the wavelength for imaging, thus calling for a single narrow absorption peak without any additional absorption at longer wavelengths. In addition to these purely optical requirements, the agents also need to display a high solubility and diffusivity in water as well as excellent biocompatibility to facilitate in vivo application.

[5] = UV-Vis absorption of dye solutions in water (molar absorption α, extinction coefficient); format: physicochemical; settings: for absorption at wavelengths above 600 nm: aqueous solutions, b66: 1 mM to 1.0 M
From the text: A Thermo Fisher Scientific Evolution 350 UV-Vis spectrophotometer was used to measure the transmission and absorption spectra of dye solutions, silica phantoms, and ex-vivo chicken breast tissues. For all the measurements, 0.2 s acquisition time was used for each wavelength.
For transmission measurements of dye solutions, 1 mm optical path quartz cuvettes (high precision, two polished sides, Orient Analytics) were used and the cells were washed with aqua regia (mixture of 36.5-38.0 w/w % HCl and 68.0-70.0 w/w % HNO3 with a volume ratio of 3:1), fully rinsed with water and dried before use. A reference spectrum was acquired with water alone, thus correcting any loss of light due to intrinsic water absorption and reflection at the air-quartz interfaces.

[6] = Imaging of 1951 USAF resolution target through 1-mm scattering phantoms; settings: optimum K-Klear conditions
Protocol: To this end, the resolvable spatial frequencies of a 1951 US Air Force (USAF) resolution target were quantified when imaging it through 1-mm scattering phantoms with different Dye-4 concentrations (FIGS. 5A-5B; FIGS. 14A-15E; see Example 7 for preparation of the phantom). The scattering phantom is placed between the objective lens and the USAF target, which is back illuminated with a white lamp (FIG. 16).
The hydrogel-silica scatter phantom in FIGS. 5A-5M was prepared by mixing the silica nanoparticle suspension (1 μm, 10 mg mL^−1) with low melting temperature agarose and Dye-4 of different amounts. The final concentration of agarose was 6 mg mL^−1. […] The mixture was then heated in an oven at 70° C. for at least 10 min to facilitate the dissolution of agarose. A 400-μL suspension was pipetted and injected into the well of a 1-mm silicone isolator (Grace bio-labs, Bend, Oregon, USA) mounted on a coverslip (24×40×0.15 mm, Fisher Scientific). The top of the solution was then sealed by another coverslip (22×22×0.15 mm, Thermo Scientific, Waltham, Massachusetts, USA) and the phantom was left at room temperature for slow solidification. […]

chicken breast tissue [7] = assay: Ex vivo K-Klear of chicken breast tissue, transmittance and attenuation coefficient; settings: immersion in 0.62 M solution, beyond 600 nm
From the text: To gradually increase the n′ of the aqueous components in chicken breast, the tissue slices were sequentially immersed in solutions containing an increasing concentration of Dye-4 (FIG. 6A; see Example 7).
To verify this point, the Dye-4 concentration was varied in the last immersion step and measure T before and after dye immersion (FIGS. 6C and 18).
For transmission measurements of chicken breast tissue, the tissue sample was first mounted on a microscope slide (precleaned, 12-550-15, Fisher Scientific), which was placed in the light path of the UV-Vis spectrometer to ensure that the entire incident beam is blocked by the tissue. For time-dependent transmission measurement, the tissue was cut to fit into a 1 cm optical path plastic cuvette (acrylic, 14-955-126, Fisher Scientific) while having sufficient area to completely block the incident light. 3 mL of Dye-4 solution was then slowly added to fully immerse the chicken breast tissue, before the cuvette was sealed by parafilm (Bemis Company, Inc., Neenah, Wisconsin, USA) to minimize water evaporation. […]
The thickness of the tissue was measured by sandwiching the tissue between two coverslips (22×22×0.15 mm, Thermal Scientific) using a digital caliper (Mitutoyo). The transmission spectra of the tissue were measured by attaching the chicken breast tissue on a microscope slide (precleaned, Fisher Scientific). […]

mouse scalp = assay: In vivo optical clearing of mouse scalp by topical gel, laser speckle imaging of cerebral vessels; design: species or system mice; settings: gel containing 0.62 M dye, 785 nm
From the text: Given the successful clearing of scattering phantoms and chicken breasts using this approach, the possibility to achieve clearing in live animals was next explored. Procedures were developed to circumvent the destructive procedures or the use of toxic chemicals commonly used in ex vivo tissue clearing methods. […] It was hypothesized that owing to the small molecular weight and sufficiently large diffusion coefficient of Dye-4 in tissue, it can be delivered topically to optically clear the skin, thus exposing underlying structures that are otherwise obscured by the skin (FIG. 7A). […] The opacity of the scalp always requires its removal for fluorescence imaging of neuron activity or laser speckle imaging of cerebral hemodynamics in the mouse brain. […]
(§1) Before each imaging experiment, the mice were weighed and anesthetized via intraperitoneal (i.p.) injection of a mixture of 16 mg/kg ketamine (Dechra Veterinary Products) and 0.2 mg/kg dexdomitor (Dexmedesed; Dechra Veterinary Products) by insulin syringes with a 30 G needle gauge. […] The hair over the mouse head was removed for the in-vivo fluorescence imaging at the mice head. The hair over the mouse hindlimbs was removed for in-vivo reflectance and fluorescence imaging at the hind limbs. […]

mouse hindlimb skin = assay: In vivo optical clearing of mouse hindlimb skin by topical gel, SHG sarcomere imaging; design: species or system mice; settings: gel containing 0.62 M dye topically
From the text: Sarcomeres, basic contractile units of skeletal and cardiac muscles, were chosen as the targets for imaging owing to their central roles in muscle functions and implications in neuromuscular diseases (e.g., spinal muscular atrophy). Existing in vivo sarcomere imaging methods require the invasive implantation of microendoscopes inside the muscle tissue for imaging the second-harmonic generation (SHG) signals from myosin rods in the sarcomere. It was hypothesized that the need for an invasively implanted microendoscope can be alleviated by applying the K-Klear method to reduce the scattering in the skin. […] This average periodicity value between SHG-generating myosin rods agrees with the reported sarcomere lengths measured via an implanted microendoscope, thus confirming the ability of K-Klear to resolve microscopic features through cleared tissue. […]
as §1

[8] = EFSA conclusion; cited from earlier work
[9] = wavelength 600 nm, aqueous solution

Compound: CC(O)CO (stereo not shown) [Propylene glycol, reference compound]
- Molar n′ change β ([1]; wavelength 589.6 nm): 0.0084 M⁻¹
- diffusion coefficient [2]: 0.021×10^−6 cm^2 s^−1

Compound: OC[C@H]1O[C@@](CO)(O[C@H]2O[C@H](CO)[C@@H](O)[C@H](O)[C@H]2O)[C@@H](O)[C@@H]1O [Sucrose, reference compound]
- Molar n′ change β ([1]; wavelength 589.6 nm): 0.0462 M⁻¹
- required immersion time to achieve the same n′ increase (chicken breast tissue [3]; chicken breast): 24 h

Compound: Cc1cc(=O)n(-c2ccccc2)n1C [Antipyrine, reference compound]
- Molar n′ change β [1, 9]: 0.037 ± 0.003 M⁻¹

Compound: [Cl-].[Na+] [Sodium chloride, reference compound]
- Molar n′ change β ([1]; wavelength 589 nm): 0.00094 M⁻¹

Compound: CC1(C)C(/C=C/C2=C(Cl)C(=C/C=C3\N(CCCCS(=O)(=O)[O-])c4ccccc4C3(C)C)/CCC2)=[N+](CCCCS(=O)(=O)[O-])c2ccccc21.[Na+] [Dye-21, Sodium 4-[2-[2-[2-chloro-3-[2-[3,3-dimethyl-1-(4-sulfonato-butyl)indol-1-ium-2-yl]vinyl]cyclohex-2-en-1-ylidene]ethylidene]-3,3-dimethyl-indolin-1-yl]butane-1-sulfonate]
- potential for clearing from β/α spectrum ([4]; longer wavelengths / NIR spectrum): greatest potential

Compound: O=C([O-])c1nn(-c2ccc(S(=O)(=O)[O-])cc2)c(O)c1/N=N/c1ccc(S(=O)(=O)[O-])cc1.[Na+].[Na+].[Na+] [Dye-4, Trisodium 5-hydroxy-1-(4-sulfonato-phenyl)-4-[(E)-(4-sulfonato-phenyl)diazenyl]-1H-pyrazole-3-carboxylate]
- β higher than that of molecules commonly used to raise the n′ of water [1]: 2-3 orders of magnitude
- efficiency in raising the n′ of water relative to glycerol on a per molar basis ([1]; at 600 nm): 11 ×
- n′ of solution reachable ([1]; at a soluble concentration, ellipsometry): up to 1.49
- Molar n′ change β ([1]; wavelength 500 nm, aqueous solution): 0.198 ± 0.005 M⁻¹
- Molar n′ change β [1, 9]: 0.143 ± 0.004 M⁻¹
- Molar n′ change β ([1]; wavelength 700 nm, aqueous solution): 0.128 ± 0.004 M⁻¹
- Molar n′ change β ([1]; wavelength 800 nm, aqueous solution): 0.130 ± 0.008 M⁻¹
- absorption at wavelengths above 600 nm [5]: minimally absorbing
- absorption at wavelengths above 600 nm ([5]; listed as tartrazine): do not absorb
- peak absorption wavelength ([5]; dissolved in water): 428 nm
- β among candidates while maintaining low α ([4]; visible spectrum of 500-700 nm, 21 candidates): highest
- resolvable spatial frequency through 1-mm scattering phantom [6]: up to 228.1 lp mm^−1
- normalized attenuation coefficient relative to original tissue (chicken breast tissue [7]): approximately 40%
- time constant τ of normalized transmittance (chicken breast tissue [3]; 0.62 M solution, tissue thickness 1.82 mm): 85.0 ± 1.2 min
- time until transmission changes saturate (chicken breast tissue [3]; 2-mm-thick chicken breast, 0.62 M solution): 2 to 3 h
- diffusion coefficient (chicken breast tissue [3]; in chicken breast tissue, clearing solution): 0.66×10^−6 cm^2 s^−1
- laser speckle image through intact scalp after topical application (mouse scalp): clearly reveals vascular structures representative of cerebral vessels
- characteristic periodicity (sarcomere length) identified through the skin window (mouse hindlimb skin): 2.60±0.28 μm
- depth at which sarcomere structures are identified through the skin (mouse hindlimb skin; 1040 nm): > 200 μm
- dose with no adverse effects or systemic toxicity [8]: up to 2 g per kg of body weight

Compound: OCC(O)CO [Glycerol, reference compound]
- concentration needed to raise the baseline n′ of water to match that of lipids [1]: 11.6 M
- Molar n′ change β ([1]; in the visible spectrum): 0.0129 M⁻¹
- Molar n′ change β ([1]; wavelength 589.6 nm): 0.0129 M⁻¹
- molar absorption coefficient α [5]: 0.012 M⁻¹
